Patent US20170007559A1, “COMPOSITIONS AND METHODS FOR PROTECTING COLONIC EPITHELIAL BARRIER FUNCTION” (The University of Tennessee Research Foundation, priority 2015, published 2017)

Assays:
[1] = tested on: colonic epithelial TJs, AJs and actin cytoskeleton; experiment: Immunofluorescence of TJ and AJ proteins and F-actin in mouse intestine after total body irradiation (4 Gy); format: in vivo; conditions: 20 mM NAC in liquid diet for 5 days prior to TBI 4 Gy, 2 hours post irradiation
Method: (§1) In the first study, adult female (12-14 week's age) mice were subjected to total body irradiation (4 Gy). At 2-24 hours post-irradiation (IR), the integrity of colonic epithelial TJs, AJs and actin cytoskeleton was examined. In a second study, mice were randomized to four groups: Sham (control), IR, NAC and NAC+IR, and fed a liquid diet with (NAC and NAC+IR) or without (Sham and IR) 20 mM NAC for 5 days prior to irradiation. IR and NAC+IR mice were subjected to total body irradiation (4 Gy), while Sham and NAC mice were sham-treated. At 2 hours post-irradiation, colon and ileum were collected and examined for oxidative stress and epithelial junctional integrity. At the end of experiment, gut permeability was measured as described below. Colon and ileum segments were stored frozen for further analyses.
Cryo-sections of colon (10 μm thickness) and ileum (12 μm thickness) were fixed in acetone methanol mixture (1:1) at […] for 2 min and rehydrated in phosphate buffered saline (PBS). Sections were permeabilized with 0.5% Triton X-100 in PBS for 15 min and blocked in 4% non-fat milk in TBST (20 mM Tris, pH 7.2 and 150 mM NaCl). It was then incubated for one hour with primary antibodies (mouse monoclonal anti-occludin and rabbit polyclonal anti-ZO-1 antibodies or mouse monoclonal E-cadherin and rabbit polyclonal anti-β-catenin antibodies), followed by incubation for one hour with secondary antibodies (AlexaFluor-488-conjugated anti-mouse IgG and Cy3-conjugated anti-rabbit IgG antibodies from Molecular Probes, Eugene, Oreg.) containing Hoechst 33342. The fluorescence was examined by using a confocal microscope (Zeiss 710) and images from x-y sections (1 μm) were collected using Zen software. Images were stacked using the Image J software (NIH) and processed by Adobe Photoshop (Adobe Systems Inc., San Jose, Calif.).
Studies were performed to evaluate the effect of RP-1 on radiation-induced redistribution of TJ and AJ proteins in mouse colon in vivo. Mice were subjected to TBI (4 Gy); in some groups, animals received a one-time injection of RP-1 (0.1 mg/kg) 30 min prior to IRR. At 2 hours post-IRR, cryosections of colon were stained for TJ and AJ proteins, images collected by confocal microscopy and fluorescence measured by densitometric analysis.

[2] = tested on: intestinal mucosal barrier function; experiment: Gut permeability in vivo, vascular-to-luminal flux of FITC-inulin after total body irradiation; parameters: species or system mouse
Method: as §1, with “analyses. Mucosal barrier dysfunction was evaluated by measuring gut permeability to FITC-inulin (6 kDa). On the last day of experiment, mice were intravenously injected with FITC-inulin (50 mg/ml solution; 2 μl/g body weight) via tail vein. One hour after injection, blood samples were collected by cardiac puncture under isoflurane anesthesia for plasma preparation. Luminal contents from colon and ileum were flushed with 0.9% saline. Fluorescence in plasma and luminal flushing was measured using fluorescence plate reader. Fluorescence values in the luminal flushing were normalized to fluorescence values in corresponding plasma samples and calculated as percent of amount injected.” for “analyses.”

[3] = tested on: detergent-insoluble fractions of TJ and AJ proteins; experiment: Immunoblot of TJ and AJ proteins in detergent-insoluble fraction of distal colonic mucosa after total body irradiation; format: in vivo, mouse; conditions: 20 mM NAC in liquid diet for 5 days prior to TBI 4 Gy, 2 hours post irradiation
Method: as §1, with “Colon and ileum segments were stored frozen for further analyses.” left out
Actin-rich detergent-insoluble fraction was prepared as described previously (Elias, B. C.; Suzuki, T.; Seth, A.; Giorgianni, F.; Kale, G.; Shen, L.; Turner, J. R.; Naren, A.; Desiderio, D. M.; Rao, R. Phosphorylation of Tyr-398 and Tyr-402 in occludin prevents its interaction with ZO-1 and destabilizes its assembly at the tight junctions. J Biol Chem 284:1559-1569; 2009; Kale, G.; Naren, A. P.; Sheth, P.; Rao, R. K. Tyrosine phosphorylation of occludin attenuates its interactions with ZO-1, ZO-2, and ZO-3. Biochem Biophys Res Commun 302:324-329; 2003.). […] Protein content was measured by BCA method (Pierce Biotechnology, Rockford, Ill.). […]

colonic loops = experiment: Inulin absorption from the lumen of isolated colonic loops of irradiated mice; format: in vivo, mouse; conditions: loops prepared 3 hours post irradiation from NAC-fed, incubated 75 min
Method: At 3 hours post irradiation, colonic loops were prepared and filled with 0.15 ml of 0.9% saline containing FITC-inulin (0.05 mg/ml) and incubated for 75 min in an incubator. Luminal contents were measured for fluorescence to evaluate inulin absorption from colonic lumen.

[4] = tested on: reduced and oxidized protein thiols; experiment: Protein thiol assay in colon and ileum after total body irradiation; format: in vivo, mouse; conditions: TBI 4 Gy, 2 hours post irradiation
Method: as §1, with “analyses. Protein thiols in colonic sections were assessed as described before. Reduced protein thiols were evaluated by staining cryosections colon with BODIPY FL-N-(2-aminoethyl) maleimide (Flm) and confocal microscopy at excitation and emission wavelengths, 490 nm and 534 nm, respectively. For oxidized protein thiols, the reduced protein thiol was first alkylated with N-ethylmaleimide followed by reduction of oxidized protein thiols with tris (2-carboxyethyl) phosphine prior to staining with Flm. […] Fluorescence images collected and fluorescence quantitated by Image J software.” for “analyses.”

Caco-2 cell monolayers = experiment: Radiation-induced redistribution of TJ proteins in Caco-2 cell monolayers; format: cell-based; conditions: NAC 10 mM pretreatment for one hour, radiation 4 Gy
Method: Therefore, we evaluated the effect of radiation on barrier function and TJ proteins in Caco-2 and m-ICC12 cell monolayers in vitro. Barrier function was evaluated by measuring transepithelial electrical resistance (TER) and transepithelial flux of FITC-inulin in cell monolayers grown on transwell inserts. Cell monolayers were also fixed and stained for occludin and ZO-1 for confocal microscopy.
The effect of LPA was also tested in m-ICC12 cells at varying doses of radiation. LPA blocked IRR-induced redistribution of ZO-1 (FIG. 14C). […] These models can be used for further mechanistic studies.

## CC(=O)N[C@@H](CS)C(=O)O [NAC, N-acetyl L-cysteine]
[1]; colon and ileum
  radiation-induced redistribution of Cldn-3: blocked
  radiation-induced redistribution of E-cadherin and β-catenin from the intercellular junctions: absent
  radiation-induced redistribution of occludin and ZO-1 from the intercellular junctions: almost a complete attenuation
[1]; colon
  radiation-induced loss of F-actin (actin cytoskeleton), colon: almost complete
[1]; ileum
  radiation-induced loss of F-actin (actin cytoskeleton), ileum: only partially protected
[2]; NAC-fed, sham-treated mice (no irradiation)
  mucosal permeability in colon or ileum, NAC by itself: no significant influence
[2]; colon, 20 mM NAC in liquid diet for 5 days prior to TBI 4 Gy, in vivo flux
  radiation-induced increase in colonic mucosal permeability to FITC-inulin: effectively attenuated
[2]; ileum, NAC supplementation in diet prior to TBI 4 Gy, in vivo flux
  radiation-induced increase in inulin permeability in the ileum: blocked
[3]
  radiation-induced loss of detergent-insoluble fractions of TJ and AJ proteins: blocked
Colonic loops
  radiation-induced increase in inulin absorbed from the lumen of colonic loops: absent
[4]; NAC fed mice, confocal images
  radiation-induced decrease in stain for reduced protein thiols and increase in stain for oxidized protein thiols: absent
[4]; NAC feeding
  radiation-induced conversion of reduced protein thiols into oxidized protein thiols, densitometric analysis of fluorescence: attenuates
Caco-2 cell monolayers
  radiation-induced loss of junctional occludin and ZO-1: significantly blocked
